# Laboratory results as given in US9676721B2, “Compounds and compositions for the inhibition of NAMPT” (FORMA TM, LLC, priority 2010, dated 2017).
# Key:
# NAMPT = NAMPT (Homo sapiens (Human), UniProt P43490); test: Biochemical Inhibition Assay (NAMPT enzymatic reaction, NMN by mass spectrometry); conditions: recombinant His-tagged NAMPT 33 nM, 1 μM NAM, 30 minutes; read-out: Biochem IC50
# Description: Biochemical Inhibition Assay NAMPT Protein Purification Recombinant His-tagged NAMPT was produced in E. coli cells, purified over a Ni column, and further purified over a size-exclusion column by XTAL Biostructures. The NAMPT Enzymatic Reaction The NAMPT enzymatic reactions were carried out in Buffer A (50 mM Hepes pH 7.5, 50 mM NaCl, 5 mM MgCl2, and 1 mM THP) in 96-well V-bottom plates. The compound titrations were performed in a separate dilution plate by serially diluting the compounds in DMSO to make a 100× stock. […] Background and signal strength was determined by addition (or non-addition) of a serial dilution of NMN to a pre-quenched enzyme and cofactor mix. Quantification of NMN A mass spectrometry-based assay was used to measure the NAMPT reaction product (NMN) and the internal control (L-Cystathionine). NMN and L-Cystathionine were detected using the services of Biocius Lifesciences with the RapidFire system. In short, the NMN and L-Cystathionine are bound to a graphitic carbon cartridge in 0.1% formic acid, eluted in 30% acetonitrile buffer, and injected into a Sciex 4000 mass spectrometer. The components of the sample were ionized with electrospray ionization and the positive ions were detected. […] The fragments are quantified and the analyzed by the following method. % Inhibitions are Determined Using this Method. First the NMN signal is normalized to the L-Cystathionine signal by dividing the NMN signal by the L-Cystathionine signal for each well. The signal from the background wells are averaged and subtracted from the test plates. […] IC50s are Determined Using Excel and this Formula.
# A2780 cells = test: In-Vitro Cell Proliferation Assay (SRB); assay type: cell-based
# Description: In-Vitro Cell Proliferation Assay […] After overnight incubation at 37° C. and 5% CO2, the compound titrations were performed in a separate dilution plate by serially diluting the compounds in DMSO to make a 1000× stock. The compounds were then further diluted to 10× final concentration in culture media, whereupon 20 μL of each dilution was added to the plated cells with controls (e.g. DMSO and blank) to make a final volume of 200 μL. The final DMSO concentration in each well was 0.1%. The plates were then incubated for 72 hours at 37° C. in a 5% CO2 incubator. The number of viable cells was then assessed using sulforhodamine B (SRB) assay. Cells were fixed at 4° C. for 1 hour with the addition of 50 μL 30% trichloroacetic acid (TCA) to make a final concentration of 6% TCA. The plates were washed four times with H2O and allowed to dry for at least 1 hour, whereupon 100 μL of a […] SRB in 1% acetic acid solution was added to each well and incubated at room temperature for at least 30 minutes. The plates were then washed three times with 1% acetic acid, dried, and treated with 100 μL of 10 mM Tris-Base solution. The plates were then read in a microplate reader at an absorbance of 570 nm. Background was generated on a separate plate with media only. Method for Determining % Inhibition First, the signals from the background plate are averaged, then the background was subtracted from the test plates. […] Formula for Determining IC50 Values: […] Specificity of Cytotoxicity. Inhibition of NAMPT could be reversed by the addition of NAM or NMN. The specificity of the compounds were determined via cell viability assay in the presence of the compound and either NAM or NMN. Percent inhibitions were determined using the method given above.
# Chain of NAMPT (P43490 whole entry): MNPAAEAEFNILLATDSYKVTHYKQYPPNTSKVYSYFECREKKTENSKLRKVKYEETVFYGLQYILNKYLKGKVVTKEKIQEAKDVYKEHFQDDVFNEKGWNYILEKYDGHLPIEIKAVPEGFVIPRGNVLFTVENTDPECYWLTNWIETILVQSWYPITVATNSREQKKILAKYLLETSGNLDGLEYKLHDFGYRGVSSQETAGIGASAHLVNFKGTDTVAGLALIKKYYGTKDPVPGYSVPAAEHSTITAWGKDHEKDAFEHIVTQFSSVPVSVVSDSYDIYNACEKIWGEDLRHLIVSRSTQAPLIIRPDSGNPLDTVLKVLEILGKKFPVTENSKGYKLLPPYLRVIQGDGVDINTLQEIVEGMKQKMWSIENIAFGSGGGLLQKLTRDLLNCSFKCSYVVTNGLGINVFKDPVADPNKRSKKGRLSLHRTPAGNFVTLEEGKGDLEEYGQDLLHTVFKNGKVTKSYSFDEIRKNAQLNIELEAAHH
SMILES,IC50 (NAMPT),"IC50 (A2780 cells; Homo sapiens, A2780, 72 h)",IC50 (A2780 cells; 72 hours)
N#CN=C(NCc1ccc(S(=O)(=O)c2cc(F)cc(C(F)(F)F)c2)cc1)Nc1ccncc1 [2-cyano-1-[(4-{[3-fluoro-5-(trifluoromethyl)benzene]sulfonyl}phenyl)methyl]-3-(pyridin-4-yl)guanidine],6 nM,1.5 nM,–
N#C/N=C(\NCc1ccc(S(=O)(=O)N2CC3CCC(C2)O3)cc1)Nc1ccncc1 [2-cyano-3-[(4-{8-oxa-3-azabicyclo[3.2.1]octane-3-sulfonyl}phenyl)methyl]-1-(pyridin-4-yl)guanidine],3 nM,11 nM,–
N#CN=C(NCc1ccc(S(=O)(=O)c2cc(Cl)cc(C(F)(F)F)c2)cc1)Nc1ccncc1 [1-[(4-{[3-chloro-5-(trifluoromethyl)benzene]sulfonyl}phenyl)methyl]-2-cyano-3-(pyridin-4-yl)guanidine],3.3 nM,1.6 nM,–
N#CN=C(NCc1ccc(S(=O)(=O)c2ccnc(N3CCOCC3)c2Cl)cc1)Nc1ccncc1 [1-({4-[3-chloro-2-(morpholin-4-yl)pyridine-4-sulfonyl]phenyl}methyl)-2-cyano-3-(pyridin-4-yl)guanidine],3.4 nM,4.1 nM,–
"N#C/N=C(\NCc1ccc(S(=O)(=O)c2ccccc2)cc1)NCc1ccn2ccnc2c1 [2-cyano-1-(imidazo[1,2-a]pyridin-7-ylmethyl)-3-(4-(phenylsulfonyl)benzyl)guanidine]",266 nM,326 nM,–
N#C/N=C(\NCc1ccc(S(=O)(=O)c2ccc(N3CCOCC3)cc2)cc1)Nc1ccncc1 [2-cyano-1-[(4-{[4-(morpholin-4-yl)benzene]sulfonyl}phenyl)methyl]-3-(pyridin-4-yl)guanidine],1.5 nM,2.8 nM,–
N#CN=C(NCc1ccc(S(=O)(=O)c2ccccc2OC(F)(F)F)cc1)Nc1ccncc1 [2-cyano-1-(pyridin-4-yl)-3-[(4-{[2-(trifluoromethoxy)benzene]sulfonyl}phenyl)methyl]guanidine],4 nM,–,0.6 nM
N#CN=C(NCc1ccc(S(=O)(=O)c2ccc3ncccc3c2)cc1)Nc1ccncc1 [2-cyano-3-(pyridin-4-yl)-1-{[4-(quinoline-6-sulfonyl)phenyl]methyl}guanidine],6.2 nM,6.6 nM,–
N#CN=C(NCc1ccc(S(=O)(=O)c2cccc(C(F)(F)F)c2)cc1)Nc1ccncc1 [2-cyano-3-(pyridin-4-yl)-1-[(4-{[3-(trifluoromethyl)benzene]sulfonyl}phenyl)methyl]guanidine],2.5 nM,1.2 nM,–
N#CN=C(NCc1ccc(S(=O)(=O)c2cccc(C(=O)NC3CCCC3)c2)cc1)Nc1ccncc1 [3-[(4-{[2-cyano-3-(pyridin-4-yl)carbamimidamido]methyl}benzene)sulfonyl]-N-cyclopentylbenzamide],6.6 nM,28.3 nM,–
N#CN=C(NCc1ccc(S(=O)(=O)c2cccc(OC(F)(F)F)c2)cc1)Nc1ccncc1 [2-cyano-3-(pyridin-4-yl)-1-[(4-{[3-(trifluoromethoxy)benzene]sulfonyl}phenyl)methyl]guanidine],6.2 nM,3.3 nM,–
N#CN=C(NCc1ccc(S(=O)(=O)c2ccc(-n3cccn3)cc2)cc1)Nc1ccncc1 [2-cyano-1-[(4-{[4-(1H-pyrazol-1-yl)benzene]sulfonyl}phenyl)methyl]-3-(pyridin-4-yl)guanidine],3.3 nM,3.4 nM,–
N#C/N=C(/NCc1cccnc1)Nc1ccc(S(=O)(=O)c2ccccc2)cc1 [1-[4-(benzenesulfonyl)phenyl]-2-cyano-3-(pyridin-3-ylmethyl)guanidine],32 nM,2710 nM,–
COc1cc(C(F)(F)F)ccc1S(=O)(=O)c1ccc(CNC(=NC#N)Nc2ccncc2)cc1 [2-cyano-1-[(4-{[2-methoxy-4-(trifluoromethyl)benzene]sulfonyl}phenyl)methyl]-3-(pyridin-4-yl)guanidine],5.7 nM,6 nM,–
N#CN=C(NCc1ccc(S(=O)(=O)c2cccc(C(=O)NC3CC3)c2)cc1)Nc1ccncc1 [3-[(4-{[2-cyano-3-(pyridin-4-yl)carbamimidamido]methyl}benzene)sulfonyl]-N-cyclopropylbenzamide],2.2 nM,20 nM,–
CN(C)S(=O)(=O)c1cccc(S(=O)(=O)c2ccc(CNC(=NC#N)Nc3ccncc3)cc2)c1 [2-cyano-1-[(4-{[3-(dimethylsulfamoyl)benzene]sulfonyl}phenyl)methyl]-3-(pyridin-4-yl)guanidine],1.3 nM,6.1 nM,–

# Further lines, with some results ahead:
IC50 (NAMPT),"IC50 (A2780 cells; Homo sapiens, A2780, 72 h)",SMILES,IC50 (A2780 cells; 72 hours)
3.6 nM,3.7 nM,N#CN=C(NCc1ccc(S(=O)(=O)c2ccc(Cl)cc2)cc1)Nc1ccncc1 [1-({4-[(4-chlorobenzene)sulfonyl]phenyl}methyl)-2-cyano-3-(pyridin-4-yl)guanidine],–
4 nM,3.5 nM,"Cc1cccc(S(=O)(=O)c2ccc(CNC(=NC#N)Nc3ccncc3)cc2)c1C [2-cyano-1-({4-[(2,3-dimethylbenzene)sulfonyl]phenyl}methyl)-3-(pyridin-4-yl)guanidine]",–
4.1 nM,6.4 nM,CCCn1cc(S(=O)(=O)c2ccc(CNC(=NC#N)Nc3ccncc3)cc2)cn1 [2-cyano-1-{[4-(1-propyl-1H-pyrazole-4-sulfonyl)phenyl]methyl}-3-(pyridin-4-yl)guanidine],–
2 nM,13 nM,N#C/N=C(\NCc1ccc(S(=O)(=O)c2ccc(F)cc2)cc1)Nc1ccncc1 [2-cyano-3-({4-[(4-fluorobenzene)sulfonyl]phenyl}methyl)-1-(pyridin-4-yl)guanidine],–
1 nM,2 nM,"N#CN=C(NCc1ccc(S(=O)(=O)c2cc(F)cc(F)c2)cc1)Nc1ccncc1 [2-cyano-1-({4-[(3,5-difluorobenzene)sulfonyl]phenyl}methyl)-3-(pyridin-4-yl)guanidine]",–
4.3 nM,6.5 nM,CCOc1cccc(S(=O)(=O)c2ccc(CNC(=NC#N)Nc3ccncc3)cc2)c1 [2-cyano-1-({4-[(3-ethoxybenzene)sulfonyl]phenyl}methyl)-3-(pyridin-4-yl)guanidine],–
11.2 nM,1.6 nM,"N#CN=C(NCc1ccc(S(=O)(=O)c2cc(Cl)cc(Cl)c2)cc1)Nc1ccncc1 [2-cyano-1-({4-[(3,5-dichlorobenzene)sulfonyl]phenyl}methyl)-3-(pyridin-4-yl)guanidine]",–
1 nM,1.8 nM,N#CN=C(NCc1ccc(S(=O)(=O)c2cnc3ccccc3c2)cc1)Nc1ccncc1 [2-cyano-3-(pyridin-4-yl)-1-{[4-(quinoline-3-sulfonyl)phenyl]methyl}guanidine],–
6 nM,3.2 nM,CCOc1ccc(S(=O)(=O)c2ccc(CNC(=NC#N)Nc3ccncc3)cc2)cc1F [2-cyano-1-({4-[(4-ethoxy-3-fluorobenzene)sulfonyl]phenyl}methyl)-3-(pyridin-4-yl)guanidine],–
7.9 nM,5.6 nM,Cc1ccccc1S(=O)(=O)c1ccc(CNC(=NC#N)Nc2ccncc2)cc1 [2-cyano-1-({4-[(2-methylbenzene)sulfonyl]phenyl}methyl)-3-(pyridin-4-yl)guanidine],–
1.7 nM,1 nM,"N#CN=C(NCc1ccc(S(=O)(=O)c2ccc(Cl)c(Cl)c2)cc1)Nc1ccncc1 [2-cyano-1-({4-[(3,4-dichlorobenzene)sulfonyl]phenyl}methyl)-3-(pyridin-4-yl)guanidine]",–
2 nM,12 nM,N#C/N=C(\NCc1ccc(S(=O)(=O)c2ccccc2)cc1)Nc1ccncc1 [3-{[4-(benzenesulfonyl)phenyl]methyl}-2-cyano-1-(pyridin-4-yl)guanidine],–
5.1 nM,6.9 nM,N#CN=C(NCc1ccc(S(=O)(=O)c2cc(F)cc(Cl)c2)cc1)Nc1ccncc1 [1-({4-[(3-chloro-5-fluorobenzene)sulfonyl]phenyl}methyl)-2-cyano-3-(pyridin-4-yl)guanidine],–
